Key:
[1] = Drug release time study of encapsulated cisplatin by UV-vis absorbance at 300 nm; format: physicochemical
Description: A drug release time study was performed on encapsulated cisplatin (i.e., cisplatin/delivery vehicle) to assess the time for complete release of the encapsulated drug from the delivery vehicle. UV-vis spectroscopy was used to monitor the change in absorbance in peaks associated with cisplatin over time.
5 mg of cisplatin was placed in a glass vial and 10 mL of water (10 mL) added. The vial was sonicated in a Bransonic Ultrasonic Cleaner (115 v, 50/60 HZ, […] transducer) for about 5 min to completely dissolve the cisplatin. 50 mg of the delivery vehicle (PEG400)4D4^M was placed in a separate vial and 10 mL of water added. Upon shaking, the polymer dissolved immediately. The cisplatin solution was added to the delivery vehicle solution drop-wise with sonication. After the mixing was complete, a UV-vis spectrum was recorded. The solution was further sonicated for 1 hr and monitored with UV-vis spectroscopy at intervals of 10 min to examine the encapsulation process. After 1 hr, sonication was stopped and incubation was allowed to continue at room temperature without shaking. UV-vis spectra were recorded at 20 min intervals for one hr, followed by 3 hours intervals for the next 24 hrs. After 24 hrs, UV-vis spectra were recorded at random intervals for several days to monitor the release time of the cisplatin. For reference, another solution of pure cisplatin was prepared at a similar concentration, and UV-vis spectra were recorded for the un-encapsulated cisplatin solution at similar intervals as with the encapsulated cisplatin solution. In about 200 hours ([…]), the absorbance of the encapsulated cisplatin solution dropped to the same level as that of the un-encapsulated cisplatin solution. This was viewed as the complete release of encapsulated cisplatin from the vehicle. All data provided in Table 4 were collected at a wavelength of 300 nm.

[2] = Microscopy of dried drops: crystal formation as evidence of cisplatin encapsulation; format: physicochemical; settings: one drop on glass slide, room temperature, open air
Excerpt: The cisplatin/delivery vehicle samples were also examined under a microscope to further investigate the encapsulation. Specifically, a comparison was made between encapsulated and un-encapsulated cisplatin.
The cisplatin/delivery vehicle samples were also examined under a microscope to further investigate the encapsulation. A comparison was made between encapsulated and un-encapsulated cisplatin.

[3] = one drop of ethanol solution dried on glass slide
Description: To verify the encapsulation, samples were examined under the microscope and a comparison was made between the paclitaxel solution alone and the paclitaxel/delivery vehicle solution. In particular, one drop of each solution was placed on a separate glass slide and the ethanol was allowed to evaporate at room temperature in the open-air. After complete evaporation of the ethanol, dry sample spots were covered and sealed by cover slides and both slides were examined under microscope.
For microscopic analysis, one drop of each solution (i.e., paclitaxel alone paclitaxel/delivery vehicle solutions) and was placed on a separate glass slide. The ethanol was allowed to evaporate at room temperature in the open-air. After complete evaporation of the ethanol, dry sample spots were covered and sealed by cover slides and both slides were examined under the microscope.

N.N.[Cl][Pt][Cl] [un-encapsulated cisplatin, cisplatin]
Absorbance ([1]; time 0.00 hrs): 0.18 | Absorbance ([1]; time 0.17 hrs): 0.17 | Absorbance ([1]; time 0.33 hrs): 0.16 | Absorbance ([1]; time 0.50 hrs): 0.16 | Absorbance ([1]; time 0.67 hrs): 0.16 | Absorbance ([1]; time 0.83 hrs): 0.16 | Absorbance ([1]; time 1.00 hrs): 0.16 | Absorbance ([1]; time 1.33 hrs): 0.16 | Absorbance ([1]; time 1.67 hrs): 0.16 | Absorbance ([1]; time 2.00 hrs): 0.16 | Absorbance ([1]; time 3.00 hrs): 0.16 | Absorbance ([1]; time 21.00 hrs): 0.15 | Absorbance ([1]; time 24.00 hrs): 0.15 | Absorbance ([1]; time 42.00 hrs): 0.15 | Absorbance ([1]; time 45.00 hrs): 0.15 | Absorbance ([1]; time 72.00 hrs): 0.15 | Absorbance ([1]; time 88.00 hrs): 0.15 | Absorbance ([1]; time 120.00 hrs): 0.15 | Absorbance ([1]; time 174.00 hrs): 0.15 | Absorbance ([1]; time […]): 0.15 | crystal formation as water evaporates (microscope) [2]: formed crystals

CC(=O)O[C@H]1C(=O)[C@@]2(C)[C@H]([C@H](OC(=O)c3ccccc3)[C@]3(O)C[C@H](OC(=O)[C@H](O)[C@@H](NC(=O)c4ccccc4)c4ccccc4)C(C)=C1C3(C)C)[C@]1(OC(C)=O)CO[C@@H]1C[C@@H]2O [un-encapsulated paclitaxel, paclitaxel]
fluorescence when exposed to fluorescent light (microscope) [3]: shows fluorescence activity

Source: US7745547B1, “Multi-arm cyclic or cubic siloxane-based formulations for drug delivery” (Becton, Dickinson and Company, priority 2005, dated 2010)
